# Results reported in patent publication EP0651055A2 (priority 1993, dated 1995).
# Assays:
# [1] = tested on: CC(=O)SCC[N+](C)(C)C; experiment: purified protein, by the assay type; conditions: other: Tyr133Ala, sodium-phosphate buffer pH 8, 27°C
# [2] = target: T1, recombinant human acetylcholinesterase (HuAChE), wild type (Homo sapiens, UniProt P22303); conditions: read-out: Km (ATC); pH 8
# [3] = tested on: CC(=O)SCCC(C)(C)C; experiment: purified protein, by the assay type; conditions: pH 8.0; 27.0 °C
# [4] = target: recombinant HuAChE mutant Tyr337Ala (Homo sapiens, UniProt P22303, Y368A); assay type: biochemical
# recombinant HuAChE mutant Tyr337Ala, sequence (P22303 32-614 Y368A limits assumed): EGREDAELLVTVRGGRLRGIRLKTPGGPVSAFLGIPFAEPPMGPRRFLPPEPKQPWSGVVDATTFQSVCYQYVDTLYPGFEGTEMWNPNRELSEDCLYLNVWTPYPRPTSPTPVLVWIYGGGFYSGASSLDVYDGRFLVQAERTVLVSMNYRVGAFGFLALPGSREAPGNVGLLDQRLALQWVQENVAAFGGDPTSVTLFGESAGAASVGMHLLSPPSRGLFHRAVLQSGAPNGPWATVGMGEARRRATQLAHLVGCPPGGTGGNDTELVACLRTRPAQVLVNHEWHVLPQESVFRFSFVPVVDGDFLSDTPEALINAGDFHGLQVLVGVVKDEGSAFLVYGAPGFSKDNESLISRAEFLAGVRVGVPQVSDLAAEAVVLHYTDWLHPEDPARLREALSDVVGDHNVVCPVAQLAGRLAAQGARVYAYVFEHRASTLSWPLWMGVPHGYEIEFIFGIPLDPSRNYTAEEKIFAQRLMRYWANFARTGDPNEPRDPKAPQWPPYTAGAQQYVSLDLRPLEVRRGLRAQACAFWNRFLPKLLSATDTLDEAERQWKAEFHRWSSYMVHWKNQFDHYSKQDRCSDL
# [5] = target: T1, recombinant human acetylcholinesterase (HuAChE), wild type; assay type: biochemical
# [6] = target: recombinant HuAChE mutant Glu450Ala (Homo sapiens, UniProt P22303, E481A); assay type: biochemical
# recombinant HuAChE mutant Glu450Ala, sequence (P22303 32-614 E481A limits assumed): as the sequence (P22303 32-614 Y368A limits assumed) above, with A337Y, E450A counted along it
# [7] = target: recombinant HuAChE mutant Glu202Gln (Homo sapiens, UniProt P22303, E233Q); assay type: biochemical
# recombinant HuAChE mutant Glu202Gln, sequence (P22303 32-614 E233Q limits assumed): as the sequence (P22303 32-614 Y368A limits assumed) above, with E202Q, A337Y counted along it
# [8] = target: recombinant HuAChE mutant Phe338Ala (Homo sapiens, UniProt P22303, F369A); assay type: biochemical
# recombinant HuAChE mutant Phe338Ala, sequence (P22303 32-614 F369A limits assumed): as the sequence (P22303 32-614 Y368A limits assumed) above, with A337Y, F338A counted along it
# T1 sequence (P22303 32-614): as the sequence (P22303 32-614 Y368A limits assumed) above, with A337Y counted along it
compound,measurement,setting,value
recombinant HuAChE mutant Tyr133Ala (Homo sapiens; Y164A),Km,[1],5750 µM
"CC(=O)SCC[N+](C)(C)C.[I-] [ATC, Acetylthiocholine iodide]",Km,[2],130 ± 15 µM
"recombinant human acetylcholinesterase (HuAChE), wild type (Homo sapiens)",Km,[3],280 ± 80 µM
CCOP(=O)(OCC)Oc1ccc([N+](=O)[O-])cc1 [paraoxon],ki (paraoxon) relative to the wild type,[4],14.4±1.4 (0.15)
same,"ki, rate constant of phosphylation (paraoxon)",[4]; acetylcholinesterase,14.4±1.4 (0.15) x 10^-4.M^-1.min^-1
same,ki (paraoxon) relative to the wild type,[5],97 ±16 (1.00)
same,ki (paraoxon) relative to the wild type,[6],1.9±0.7 (0.02)
same,ki (paraoxon) relative to the wild type,[7],2.8±0.48(0.03)
same,"ki, rate constant of phosphylation (paraoxon)",[7]; acetylcholinesterase,2.8±0.48(0.03) x 10^-4.M^-1.min^-1
same,ki (paraoxon) relative to the wild type,[8],7.1±0.6 (0.07)
same,"ki, rate constant of phosphylation (paraoxon)",[8]; acetylcholinesterase,7.1±0.6 (0.07) x 10^-4.M^-1.min^-1
